Common to all, as to experiment: relative viability (nuclei count vs DMSO), 5 days (fraction); higher = more cells survive
Compound in assay [1]: C(C(=O)C(=O)O)Br [Bromopyruvate] + COc1cc2c(Oc3ccc(NC(=O)C4(C(=O)Nc5ccc(F)cc5)CC4)cc3F)ccnc2cc1OCCCN1CCOCC1 [Foretinib] (partner 0.25 µM)
An outline of the steps:
(§1)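 Values are medians from duplicate plates. Each reflects relative viability, defined as the nuclei count of treated wells over that of vehicle wells. Lung cancer cell lines in 1536-well plates were pin-tool dosed one day after seeding with one drug alone or with a fixed anchor-drug dose plus five library-drug doses (not always all listed) in √10 steps, then fixed, stained and imaged at 4× after 5 days.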

Compound in assay [2]: C(C(=O)C(=O)O)Br [Bromopyruvate] + Nc1ncn([C@H]2C[C@H](O)[C@@H](CO)O2)c(=O)n1 [Decitabine] (partner 2 µM)
An outline of the steps:
as §1

Compound in assay [3]: CC(O)(CS(=O)(=O)c1ccc(F)cc1)C(=O)Nc1ccc(C#N)c(C(F)(F)F)c1 [Bicalutamide] + CC1(C)CCC(c2ccc(Cl)cc2)=C(CN2CCN(c3ccc(C(=O)NS(=O)(=O)c4ccc(N[C@H](CCN5CCOCC5)CSc5ccccc5)c(S(=O)(=O)C(F)(F)F)c4)cc3)CC2)C1 [Navitoclax] (partner 0.5 µM)
The essentials: as §1

Compound in assay [4]: CC(O)(CS(=O)(=O)c1ccc(F)cc1)C(=O)Nc1ccc(C#N)c(C(F)(F)F)c1 [Bicalutamide] + Nc1ncn([C@H]2C[C@H](O)[C@@H](CO)O2)c(=O)n1 [Decitabine] (partner 2 µM)
The essentials: as §1

With SW 1573, the relative viability in assay [1] (first compound 1 µM) was determined as 0.741; in assay [1] (first compound 3.162 µM), 0.845; in assay [1] (first compound 10 µM), 0.982; in assay [1] (first compound 31.62 µM), 0.996; in assay [1] (first compound 100 µM) it was 0.868; in assay [2] (first compound 1 µM), 0.498. In addition, the relative viability in assay [2] (first compound 3.162 µM) came to 0.574; in assay [2] (first compound 10 µM) it was 0.534; in assay [2] (first compound 31.62 µM) it was 0.304; in assay [2] (first compound 100 µM) it was 0.0598; in assay [3] (first compound 0.08 µM) it was 0.908; in assay [3] (first compound 0.253 µM) it was 0.914. For the same cell line, the relative viability in assay [3] (first compound 0.8 µM) is 1.17; in assay [3] (first compound 2.53 µM) it was 1.16; in assay [4] (first compound 0.08 µM), 0.664; in assay [4] (first compound 0.253 µM), 0.457; in assay [4] (first compound 0.8 µM), 0.659; in assay [4] (first compound 2.53 µM), 0.441.
UMC-11: the relative viability in assay [1] (first compound 1 µM) came to 1.05; in assay [1] (first compound 3.162 µM), 1.02; in assay [1] (first compound 10 µM) it was 1.04; in assay [1] (first compound 31.62 µM), 0.989; in assay [1] (first compound 100 µM), 0.987; in assay [2] (first compound 1 µM), 0.596. Further, the relative viability in assay [2] (first compound 3.162 µM) was 0.574; in assay [2] (first compound 10 µM), 0.815; in assay [2] (first compound 31.62 µM), 0.617; in assay [2] (first compound 100 µM) it was 0.708; in assay [3] (first compound 0.08 µM) it was 0.328; in assay [3] (first compound 0.253 µM), 0.25. Further, the relative viability in assay [3] (first compound 0.8 µM) turned out to be 0.281; in assay [3] (first compound 2.53 µM), 0.279; in assay [4] (first compound 0.08 µM), 0.535; in assay [4] (first compound 0.253 µM), 0.507; in assay [4] (first compound 0.8 µM), 0.623; in assay [4] (first compound 2.53 µM), 0.555.

Values taken from the supplement of paper PMC10307832.
